Patent US20210147466A1, “IMPROVED PROCESSES FOR THE PREPARATION OF GUADECITABINE AND INTERMEDIATES THEREOF” (TEVA CZECH INDUSTRIES s.r.o., priority 2017, published 2021)
Like-named read-outs stand apart in the source and are kept apart here.

What was measured:
[1] = undergoes hydrolytic degradation; cited from earlier work
[2] = assay type: physicochemical
Protocol: Analytical HPLC Method Used for Measuring Guadecitabine Purity
Column: 150×3.0 mm Luna Omega Polar C18, 1.6 μm at 40° C.
Solvent A: 0.15 mL/l formic acid in water, pH adjusted with ammonia to 3.6. Solvent B: acetonitrile Gradient program: […]
Example 23: Comparison of Guadecitabine Sodium Form A Stability in Water at 25° C. and Methanol Water (9/1 v/v) at 40° C.
In water stability of guadecitabine sodium form A was measured as follows.
Instrument method: autosampler temp. was set to 25° C. 10 mg of guadecitabine sodium form A was weighted in 2-mL vial in glovebox and 1 mL of water was added to have concentration exactly 10 mg/mL. Sample was injected freshly after preparation (0 min), 20 min after preparation (20 min) and afterwards every 40 min (duration of single analysis run).

[3] = Stability of guadecitabine sodium form A in methanol water (9/1 v/v) at 40° C. (HPLC contents); assay type: physicochemical
Protocol: Analytical HPLC Method Used for Measuring Guadecitabine Purity Column: 150×3.0 mm Luna Omega Polar C18, 1.6 μm at 40° C. Solvent A: 0.15 mL/l formic acid in water, pH adjusted with ammonia to 3.6. Solvent B: acetonitrile Gradient program: [table] [table] Example 23: Comparison of Guadecitabine Sodium Form A Stability in Water at 25° C. and Methanol Water (9/1 v/v) at 40° C.

[4] = Stability in aqueous media (statements in the description); assay type: physicochemical; conditions: aqueous phase of chromatography on C18 column

Nc1ncn([C@H]2C[C@H](O)[C@@H](CO)O2)c(=O)n1 [Decitabine]
stability in aqueous media [1]: unstable

Nc1ncn([C@H]2C[C@H](OP(=O)([O-])OC[C@H]3O[C@@H](n4cnc5c(=O)[nH]c(N)nc54)C[C@@H]3O)[C@@H](CO)O2)c(=O)n1.[Na+] [guadecitabine sodium]
HPLC contents (%) Degradant 2a [2]: <0.05% | HPLC contents (%) Degradant 2b [2]: <0.05% | HPLC contents (%) Degradant 2c [2]: 0.14% | HPLC contents (%) Degradant 2d [2]: 0.05% | HPLC contents (%) guadecitabine sodium ([2]; Solution in DMSO, no time point (reference)): 99.82% | HPLC contents (%) guadecitabine sodium ([2]; Solution in water, 10 mg/mL, 25° C., injection time point 0 min): 99.80% | HPLC contents (%) guadecitabine sodium ([2]; Solution in water, 10 mg/mL, 25° C., injection time point 20 min): 99.63% | HPLC contents (%) guadecitabine sodium ([2]; Solution in water, 10 mg/mL, 25° C., injection time point 40 min): 99.39% | HPLC contents (%) guadecitabine sodium ([2]; Solution in water, 10 mg/mL, 25° C., injection time point 80 min): 99.02% | HPLC contents (%) guadecitabine sodium ([2]; Solution in water, 10 mg/mL, 25° C., injection time point 120 min): 98.58% | HPLC contents (%) guadecitabine sodium ([2]; Solution in water, 10 mg/mL, 25° C., injection time point 160 min): 98.16% | HPLC contents (%) guadecitabine sodium ([2]; Solution in water, 10 mg/mL, 25° C., injection time point 200 min): 97.56% | HPLC contents (%) guadecitabine sodium ([2]; Solution in water, 10 mg/mL, 25° C., injection time point 240 min): 97.11% | HPLC contents (%) guadecitabine sodium ([2]; Solution in water, 10 mg/mL, 25° C., injection time point 280 min): 96.29% | HPLC contents (%) Degradant 2a [3]: <0.05% | HPLC contents (%) Degradant 2b [3]: <0.05% | HPLC contents (%) Degradant 2c [3]: 0.14% | HPLC contents (%) Degradant 2d [3]: 0.10% | HPLC contents (%) guadecitabine sodium ([3]; Suspension in methanol/water (9/1), 40° C., injection time point 240 min): 99.76%

Nc1ncn([C@H]2C[C@H](OP(=O)(O)OC[C@H]3O[C@@H](n4cnc5c(=O)[nH]c(N)nc54)C[C@@H]3O)[C@@H](CO)O2)c(=O)n1 [guadecitabine, [(2R,3S,5R)-5-(2-amino-6-oxo-3H-purin-9-yl)-3-hydroxyoxolan-2-yl]methyl [(2R,3S,5R)-5-(4-amino-2-oxo-1,3,5-triazin-1-yl)-2-(hydroxymethyl)oxolan-3-yl] hydrogen phosphate]
stability in aqueous phase [4]: not stable | guadecitabine degradation ([3]; in methanol): significantly suppressed
